Assay [1] deals with C. elegans wild-type N2 strain. As to the kind of experiment: Worm culture and growth assay in axenic CeHR/mCeHR liquid medium. In kind it is in vivo. Also on record: key to Growth 1.6 μM hemin / Growth 0.5 μM GaPP: + = wild type equivalent In growth; ND: No growth. The protocol:
(D) Biphasic response of C. elegans cultured in the presence of increasing amounts of hemin chloride (μM). Equal numbers of synchronized L1 larvae were grown in 24-well plates in mCeHR medium for 9 days and quantified (worms/μl) by microscopy. Each data point represents the mean±SD from three separate experiments performed in triplicate.
(A) Aerobic growth of C. elegans in mCeFIR medium with 20 μM hemin supplemented with either gallium protoporphyrin IX (GaPP) or gallium salts. Synchronized L1 larvae were grown for 9 days in 24-well plates and quantified (worms/μl) by microscopy. Each data point represents the mean from a single experiment, and each experiment was performed in triplicate. Inset depicts the GaPP analysis at lower concentrations for clarity.
(B) Effect of heme on the cytotoxicity of GaPP. Synchronized L1 larvae were inoculated in 24-well plates containing mCeHR medium with either 0, 2, 4, or 6 μM GaPP and increasing hemin (μM). The number of worms per μl was measured on day 9 and the data are presented as mean±SD.
FIG. 9 depicts worm utilization of heme-iron under iron deprivation. Equal numbers of synchronized L1 larvae were grown in the presence of 4, 20, and 100 μM hemin, either in basal mCeHR medium (set 1), or basal medium lacking exogenous iron (set 2), or as set 2 with 1 μM of the iron chelator ferrozine (set 3), or as set 3 with 486 μM ferrous ammonium sulfate (set 4). These values of ferrozine and iron were empirically determined by performing dose-response experiments and analyzing worm growth. The number of worms per μl was measured on day 9 and the data presented as mean±SD performed in triplicate. P<0.001 between sets 1 and 3.
To qualitatively and quantitatively determine the heme requirement of C. elegans, we assessed growth at various heme concentrations. Equal numbers of L1 larvae were inoculated in CeHR medium with either no cytochrome c and hemin, or with cytochrome c and increasing amounts of hemin (FIG. 4A). The effect of hemin became apparent within 48 hours and by 9 days, the heme-deplete worms were severely growth retarded at the L1/L2 stages. […] However, this stimulatory effect of heme was toxic to worms grown at heme concentrations >750 μM. To quantitatively assess the effect of heme on worms, we counted the number of live worms grown under different concentration of heme using DIC microscopy. […] On the basis of this association between heme and the growth and reproduction of C. elegans, we conclude that the biphasic nature of heme is likely due to the need for heme under heme-deprived conditions to perform essential metabolic functions, and the lethality of heme at high concentrations can be attributed to its cytotoxic activity.
(§1) Worm Culture and Growth Assays. Free-living worms were cultured in CeHR axenic liquid medium (Dr. Eric Clegg, Personal Communication). […] CeHR medium was modified (henceforth called mCeHR) to eliminate all sources of exogenously added heme; basal growth medium comprised 20 μM hemin chloride (Frontier Scientific, Logan, Utah) and 150 μM of ferrous ammonium sulfate (Sigma Chemicals). Worm strains were grown in mCeHR medium under aerobic conditions in tissue culture flasks at 20° C. ˜3.7×10^6 worms were routinely obtained after 3.5 to 4 days in a T75 flask with 30 ml basal medium from an initial inoculum of −1.5×10^5 worms. For initial culturing of worms in axenic media, three generations of worms were sequentially bleached (1.1% bleach/0.55 M NaOH) to eliminate any contaminating bacterial carryover from agar plates. In all dose-response experiments, worms were growth synchronized by treating the gravid hermaphrodite worms with bleach to dissolve adult worms. The eggs, resistant to bleach, were liberated from the carcasses and extensively washed with M9 buffer followed by overnight hatching in M9 buffer to synchronize growth. By harvesting at appropriate time intervals, synchronous larval stages and adult staged worms were collected for experimental manipulations. […]

In another assay the test system is C. elegans mutant IH828. In words: Growth of heme resistant mutant in CeHR medium. Particulars: in vivo. The assay is classed as in vivo, Caenorhabditis elegans. The protocol:
(§2) To further increase the stringency of our genetic screen we split the contents from each 800 μM hemin selection flasks into two flasks containing either 800 μM or 1000 μM hemin. This allowed us to use another tier of positive selection to identify mutants with greater resistance to heme toxicity. Mutants from each flask were isolated and treated as a separate entity by giving an identification number based on the Genetic Nomenclature Guidelines used for C. elegans (http://biosci.umn.edu/CGC/Nomenclature/nomenguid.htm). To eliminate EMS-induced spurious mutations that could result in false positive, the mutants were outcrossed to wild-type N2 males. After five outcrosses, which replaces ˜97% of the mutant genome, mutants that bred true were selected for further analysis. Using this procedure, we isolated 13 individual mutants that were resistant to heme toxicity. These mutants were further characterized by analyzing Mendelian segregation ratios, X-linkage, phenotype penetrance, generation times, brood size, and their ability to grow under low hemin. […] This observation was surprising because we anticipated that high heme-resistant mutants will grow poorly under low heme. Based on the mutant's growth profile at low and high heme levels, we broadly categorized them into three phenotypic classes: class A, class B and class C (FIG. 13). These “phenoclusters” have the following growth phenotype: (a) three mutants IH728, IH938, IH731 show with robust growth under low and high (≧800 μM heme (FIG. 13B), (b) one mutant IH828 show exceptional growth under low heme, moderate growth at ≦800 μM heme, and no growth at 1000 μM hemin (FIG. 13C), and (c) six mutants IH921, IH11058, IH1068n, IH1068d, IH1048, and IH718 that show moderate growth under high heme (≦800 μM), but normal growth under low heme (FIG. 13D). By classifying these mutants into phenoclusters, we can focus our efforts on the phenotypic datasets to map the molecular networks and pathways involved in heme dependent processes. For instance, mutants in a cluster may have mutations within the same gene or in multiple genes but within the same pathway.
as §1, with “manipulations. Identical numbers of synchronized L1 larvae were inoculated into media with different heme concentrations in 12- or 24-well culture plates. Worm growth was monitored each day and an aliquot was obtained for counting by microscopy usually at days 3, 6, and 9. The worms in each well were counted twice and each growth condition was analyzed in triplicate. P values for statistical significance were calculated utilizing a one-way ANOVA with Student-Newman-Keuls multiple comparison test using GraphPad Instat version 3.01.” for “manipulations.”

A further assay deals with C. elegans mutant IH1048. In words: Growth of heme resistant mutant in CeHR medium. On the set-up: key to Growth 1.6 μM hemin / Growth 0.5 μM GaPP: + = wild type equivalent In growth; ND: No growth. In kind it is in vivo, Caenorhabditis elegans. How it is done:
as §2
as §1, with “manipulations. Identical numbers of synchronized L1 larvae were inoculated into media with different heme concentrations in 12- or 24-well culture plates. Worm growth was monitored each day and an aliquot was obtained for counting by microscopy usually at days 3, 6, and 9. The worms in each well were counted twice and each growth condition was analyzed in triplicate. P values for statistical significance were calculated utilizing a one-way ANOVA with Student-Newman-Keuls multiple comparison test using GraphPad Instat version 3.01.” for “manipulations.”

Assay [2] deals with C. elegans mutant IH1068 d. As to the kind of experiment: Growth of heme resistant mutant in CeHR medium. In kind it is in vivo, Caenorhabditis elegans. Also on record: key to Growth 1.6 μM hemin / Growth 0.5 μM GaPP: + = wild type equivalent In growth; ND: No growth. The protocol: as §2
as §1, with “manipulations. Identical numbers of synchronized L1 larvae were inoculated into media with different heme concentrations in 12- or 24-well culture plates. Worm growth was monitored each day and an aliquot was obtained for counting by microscopy usually at days 3, 6, and 9. The worms in each well were counted twice and each growth condition was analyzed in triplicate. P values for statistical significance were calculated utilizing a one-way ANOVA with Student-Newman-Keuls multiple comparison test using GraphPad Instat version 3.01.” for “manipulations.”

For assay [3], the system named is C. elegans mutant IH1068 n. In words: Growth of heme resistant mutant in CeHR medium. The assay is classed as in vivo, Caenorhabditis elegans. On the set-up: key to Growth 1.6 μM hemin / Growth 0.5 μM GaPP: + = wild type equivalent In growth; ND: No growth. How it is done:
as §2
as §1, with “manipulations. Identical numbers of synchronized L1 larvae were inoculated into media with different heme concentrations in 12- or 24-well culture plates. Worm growth was monitored each day and an aliquot was obtained for counting by microscopy usually at days 3, 6, and 9. The worms in each well were counted twice and each growth condition was analyzed in triplicate. P values for statistical significance were calculated utilizing a one-way ANOVA with Student-Newman-Keuls multiple comparison test using GraphPad Instat version 3.01.” for “manipulations.”

For a further assay, the system named is C. elegans mutant IH718. In words: Growth of heme resistant mutant in CeHR medium. On the set-up: key: + = wild type equivalent In growth; ND: No growth. The assay is classed as in vivo, Caenorhabditis elegans. The protocol: To further increase the stringency of our genetic screen we split the contents from each 800 μM hemin selection flasks into two flasks containing either 800 μM or 1000 μM hemin. This allowed us to use another tier of positive selection to identify mutants with greater resistance to heme toxicity. Mutants from each flask were isolated and treated as a separate entity by giving an identification number based on the Genetic Nomenclature Guidelines used for C. elegans (http://biosci.umn.edu/CGC/Nomenclature/nomenguid.htm). To eliminate EMS-induced spurious mutations that could result in false positive, the mutants were outcrossed to wild-type N2 males. After five outcrosses, which replaces ˜97% of the mutant genome, mutants that bred true were selected for further analysis. Using this procedure, we isolated 13 individual mutants that were resistant to heme toxicity. […]
Worm Culture and Growth Assays. […] Worm growth was monitored each day and an aliquot was obtained for counting by microscopy usually at days 3, 6, and 9. The worms in each well were counted twice and each growth condition was analyzed in triplicate. P values for statistical significance were calculated utilizing a one-way ANOVA with Student-Newman-Keuls multiple comparison test using GraphPad Instat version 3.01. […]

Take `C=CC1=C(C)C2=[N+]3C1=Cc1c(C)c(C=C)c4[n]1[Ga-]31[n]3c(c(C)c(CCC(=O)O)c3=CC3=[N+]1C(=C4)C(C)=C3CCC(=O)O)=C2` (centres unmarked) [GaPP, gallium protoporphyrin IX]: in assay [1] (0, 2, 4 or 6 μM GaPP, day 9), the “toxic effect of GaPP in the presence of increasing levels of hemin” value was “attenuated”. Besides, the “toxicity rank among six non-iron metalloporphyrins tested” value in assay [1] (4 μM hemin) is recorded as “most toxic heme analog”. Further, the “Growth 0.5 μM GaPP” value (in assay [1] (Control Wild-type (N2)); with C. elegans mutant IH1048; in assay [2]; in assay [3]; with C. elegans mutant IH718) was “+” each time. The results for the “sensitivity compared to hemin” value in assay [1] (F1 progeny) and in assay [1] (P0 worms) were 3,200 fold and 800 fold, respectively. Further, in assay [1] (F1 progeny of surviving P0 worms grown at lower GaPP), the “GaPP concentration at which worms were growth arrested” value stood at 0.25 µM. The “toxicity relative to hemin” value in assay [1] (P0 and F1 animals) is 800-3000 times. The “GaPP concentration at which worms were growth retarded” value in assay [1] (P0 worms, medium with hemin) is 1 µM. Moreover, the “sensitivity of worms to GaPPIX compared to heme” value in assay [1] (in vivo) came to 30 times. For the same compound, in the assay with C. elegans mutant IH828, the “resistance of IH828 to GaPP toxicity” value is “extremely resistant”.

For the origin of these results see patent publication US20060206946A1, “Method of disrupting heme transport in nematodes and of modelling and evaluating eukaryotic heme transport” (priority 2005, published 2006).
